Source: US12053533B2, “Fluorescent probe for cyclooxygenase-2” (The Board of Trustees of the University of Illinois, priority 2020, dated 2024)
Entries after “also recorded” stand apart in the source; their conditions may differ.

Assays:
[1] = molecular target: T1, COX-1 isolated from bovine vesicles (Bos taurus, UniProt O62664); assay: Isoform selectivity: CoxFluor incubated with COX-1; format: biochemical; details: even in the presence of 10-fold excess enzyme activity
T1 construct: COX-1 isolated from bovine vesicles; from tissue; host or cells: bovine vesicles
T1 sequence (O62664 25-600): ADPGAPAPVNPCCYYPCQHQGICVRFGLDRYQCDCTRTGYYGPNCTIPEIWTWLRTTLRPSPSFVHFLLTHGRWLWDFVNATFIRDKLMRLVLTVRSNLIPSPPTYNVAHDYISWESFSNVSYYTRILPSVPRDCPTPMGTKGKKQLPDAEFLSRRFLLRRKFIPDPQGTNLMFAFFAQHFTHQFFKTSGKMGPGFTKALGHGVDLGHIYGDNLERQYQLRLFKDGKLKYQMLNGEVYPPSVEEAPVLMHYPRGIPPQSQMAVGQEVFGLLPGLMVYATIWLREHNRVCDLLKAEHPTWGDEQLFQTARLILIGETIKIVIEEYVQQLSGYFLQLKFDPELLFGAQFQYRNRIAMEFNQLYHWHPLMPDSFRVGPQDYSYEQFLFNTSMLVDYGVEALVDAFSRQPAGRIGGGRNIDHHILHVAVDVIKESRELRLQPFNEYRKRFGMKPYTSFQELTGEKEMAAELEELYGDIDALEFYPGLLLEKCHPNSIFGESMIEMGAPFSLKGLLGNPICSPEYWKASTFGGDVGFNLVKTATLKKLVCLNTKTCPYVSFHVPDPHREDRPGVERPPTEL
Experimental: Enzyme Selectivity. Enzyme activity was defined as the amount substrate (μmol) consumed during one minute by one milligram of enzyme in 100 mM Tris-HCl at pH 8.0 under saturating conditions. Enzyme concentrations were measured using the BCA assay (Thermo Fisher Scientific) according to the published protocol with bovine serum albumin for the standard curve. […] The oxygen electrode was calibrated using 1% sodium sulfite for 0% oxygen and atmosphere equilibrated 100 mM Tris-HCl at pH 8.0 for 100% oxygen. The reaction was monitored at 37° C. in a glass chamber with a total reaction volume of 1 mL. […] When measured, all enzyme activities were confirmed to be under saturating conditions and within the first 20% of the reaction. The selectivity of CoxFluor (10 μM) was monitored after incubation with either 0.101 U COX-2 or 1.01 U of the other enzymes, unless noted otherwise above, in 100 mM Tris-HCl buffer at pH 8.0 using the plate reader with excitation at 540 nm and emission at 590 nm. Total reaction volume was maintained at 95 μL with a final DMSO concentration of 1.26% (v/v).

[2] = Analyte selectivity (reactive species); details: CoxFluor 10 μM, analytes up to 500 μM (50 equiv), 4 h
Experimental: Analyte Selectivity. Response of CoxFluor (10 μM) to a variety of reactive oxygen, nitrogen, carbonyl, metals, and sulfur species (1, 3, 5, or 50 equiv) were monitored using the plate reader assay. Total volume of the reaction mixture was maintained at 190 μL in 100 mM Tris-HCl buffer (pH 8.0) with a final DMSO concentration of 1.26% (v/v). Assays for CoxFluor or resorufin were initiated by the addition of the analytes and the reactions were incubated at room temperature for up to 4 h. Measurements were recorded at a range of time points, and the relative turn-on was determined relative to a buffer control containing 10 μM CoxFluor or resorufin. Superoxide anion was added as a solution of potassium superoxide in DMSO. Nitroxyl was generated in situ from a solution of Angeli's salt in degassed 10 mM potassium hydroxide solution. Angeli's salt was prepared according to previously reported literature (Methods Enzymol. 1999, 301, 279). NO was generated in situ from a solution of MAHMA-NONOate in degassed 10 mM potassium hydroxide. Peroxynitrite was prepared according to previously reported literature (Anal. Biochem. 2006, 354, 165). All metals were prepared from their chloride salt. Formaldehyde solutions were prepared by depolymerizing saturated aqueous solutions at 100° C. before use. […]

[3] = Photophysical characterization; format: physicochemical
Experimental: Photophysical Characterization. Extinction coefficients and fluorescence quantum yields were acquired (n=3) and reported as the average with a relative standard deviation less than 15%. Extinction coefficients were acquired by titrating compound in 100 mM Tris-HCl (pH 8.0) within the linear range. Fluorescence quantum yields were obtained using the modified method for relative fluorescence quantum yield. Dye was titrated into the solution and the absorbance and emission were monitored (excitation at 540 nm). The absorbance was maintained below 0.1 to limit secondary absorbance events. Total emission spectra were integrated, and the relative quantum yield was calculated relative to Rhodamine B (ϕ=0.70, ethanol). The refractive index of 100 mM Tris-HCl (pH 8.0) was measured to be 1.33514.

HEK 293T cells = assay: Cell viability (trypan blue exclusion and MTT) in HEK 293T cells; format: cell-based; details: 6 h incubation
Experimental: Trypan Blue Exclusion Cytotoxicity Assay. 6-well plates were seeded with 300,000 cells per well (2 mL of 150,000 cells/mL) and incubated at 37° C. with 5% CO2 for 48 to 72 h (˜60-80% confluent). Media was removed and replaced with either 5, 10, or 25 μM CoxFluor in fresh serum-free DMEM media (1.25% DMSO v/v final concentration). […] The trypsin was quenched with the addition of 1.8 mL DMEM media containing 10% FBS and the cells were mixed thoroughly before diluting 1:1 with trypan blue (0.4% in PBS w/v). Percent viability was measured using a Countess® II FL Automated Cell Counter (Thermo Fisher Scientific), where the parameters were optimized to identify live and dead cells. Viability was calculated by the relative to the vehicle control.
MTT Cytotoxicity Assay. […] The media was removed at various time points (3 or 6 h) and replaced with 200 μL 20:1 mixture of FBS-free DMEM and (3-(4,5-dimethylthiazol-2-yl)-2,5-diphenyl-tetrazolium bromide (MTT, 5 mg/mL stock in PBS). The cells were incubated for 4 h under the same conditions and then the medium was removed and replaced with DMSO (200 μL/well). The absorbance of each well was recorded after a 1:5 dilution in DMSO at 555 nm on a microplate reader. Viability was calculated by the absorbance relative to the vehicle control.

CCCCC/C=C\C/C=C\C/C=C\C/C=C\CCCC(=O)N1c2ccc(O)cc2Oc2cc(O)ccc21 [CoxFluor]
fluorescent enhancement with COX-1 [1]: not observed; also recorded: No fluorescent enhancement was observed
activation by reactive oxygen/nitrogen species and other oxidants and reductants [2]: no undesirable activation
extinction coefficient ε at 572 nm ([3]; 100 mM Tris-HCl pH 8.0): 820 M⁻¹ cm⁻¹
fluorescence quantum yield ΦF ([3]; 100 mM Tris-HCl pH 8.0, relative to Rhodamine B): 0.29
cell viability (HEK 293T cells): suitable viability
